{
  "source": "paper PMC10065276",
  "about": "“Enhanced therapeutic window for antimicrobial Pept-ins by investigating their structure-activity relationship” (PLOS ONE, 2023)",
  "note": "Residues, ends and D or L forms follow the SMILES beside them.",
  "data": [
    {"system": "E. coli BL21", "conditions": "BL21, 17 h", "protocol": "The peptide MIC was determined via the broth microdilution assay according to the EUCAST guideline, using 96-well polystyrene flat-bottom microtiter plates (BD Biosciences). Briefly, a single colony was inoculated in 5 mL Mueller-Hinton (MH) medium and incubated, while shaking at 37°C, to the end-exponential growth phase. The bacterial culture was subsequently diluted to 0.005 McFarland (McF) (~1.5x10^6 CFU/mL) with fresh MH medium. Two-fold serial peptide-dilutions were prepared in 50 μL MH medium resulting in a concentration range of 0.75 to 100 μg/mL (at least three wells for each concentration). Afterwards, 50 μL of the freshly diluted bacterial suspension (0.005 McF) was mixed with different peptide concentrations in the 96-well plate, performed in triplicates. The plate was ultimately incubated at 37°C overnight without shaking for 17 hours. The MIC was determined as the lowest peptide concentration without visible bacterial growth.", "units": {"BL21 MIC": "µg/mL"}, "values": [
      {"smiles": "CC[C@H](C)[C@H](NC(=O)[C@H](C)NC(=O)[C@H](CCCNC(=N)N)NC(=O)[C@@H](NC(=O)[C@H](CC(C)C)NC(=O)[C@H](C)NC(=O)[C@H](CC(C)C)NC(=O)CNC(=O)[C@H](CC(C)C)NC(=O)CNC(=O)[C@@H](N)CCCNC(=N)N)C(C)C)C(=O)N[C@@H](CCCNC(=N)N)C(=O)NCC(=O)N[C@@H](CC(C)C)C(=O)NCC(=O)N[C@@H](CC(C)C)C(=O)N[C@@H](C)C(=O)N[C@@H](CC(C)C)C(=O)N[C@H](C(=O)N[C@@H](C)C(=O)N[C@@H](CCCNC(=N)N)C(=O)O)C(C)C", "note": "[Peptide P2_4R_I] (H-RGLGLALVRAIRGLGLALVAR-OH)", "BL21 MIC": 12.50},
      {"smiles": "CSCC[C@H](NC(=O)[C@H](C)NC(=O)[C@H](CCCNC(=N)N)NC(=O)[C@@H](NC(=O)[C@H](CC(C)C)NC(=O)[C@H](C)NC(=O)[C@H](CC(C)C)NC(=O)CNC(=O)[C@H](CC(C)C)NC(=O)CNC(=O)[C@@H](N)CCCNC(=N)N)C(C)C)C(=O)N[C@@H](CCCNC(=N)N)C(=O)NCC(=O)N[C@@H](CC(C)C)C(=O)NCC(=O)N[C@@H](CC(C)C)C(=O)N[C@@H](C)C(=O)N[C@@H](CC(C)C)C(=O)N[C@H](C(=O)N[C@@H](C)C(=O)N[C@@H](CCCNC(=N)N)C(=O)O)C(C)C", "note": "[Peptide P2_4R_M] (H-RGLGLALVRAMRGLGLALVAR-OH)", "BL21 MIC": 12.50},
      {"smiles": "CC(C)C[C@H](NC(=O)CNC(=O)[C@H](CCCNC(=N)N)NC(=O)[C@H](CCCNC(=N)N)NC(=O)[C@H](C)NC(=O)[C@H](CCCNC(=N)N)NC(=O)[C@@H](NC(=O)[C@H](CC(C)C)NC(=O)[C@H](C)NC(=O)[C@H](CC(C)C)NC(=O)CNC(=O)[C@H](CC(C)C)NC(=O)CNC(=O)[C@@H](N)CCCNC(=N)N)C(C)C)C(=O)NCC(=O)N[C@@H](CC(C)C)C(=O)N[C@@H](C)C(=O)N[C@@H](CC(C)C)C(=O)N[C@H](C(=O)N[C@@H](C)C(=O)N[C@@H](CCCNC(=N)N)C(=O)O)C(C)C", "note": "[Peptide P2_4R_R] (H-RGLGLALVRARRGLGLALVAR-OH)", "BL21 MIC": 12.50},
      {"smiles": "CC(C)C[C@H](NC(=O)CNC(=O)[C@H](CCCNC(=N)N)NC(=O)[C@@H](NC(=O)[C@H](C)NC(=O)[C@H](CCCNC(=N)N)NC(=O)[C@@H](NC(=O)[C@H](CC(C)C)NC(=O)[C@H](C)NC(=O)[C@H](CC(C)C)NC(=O)CNC(=O)[C@H](CC(C)C)NC(=O)CNC(=O)[C@@H](N)CCCNC(=N)N)C(C)C)C(C)C)C(=O)NCC(=O)N[C@@H](CC(C)C)C(=O)N[C@@H](C)C(=O)N[C@@H](CC(C)C)C(=O)N[C@H](C(=O)N[C@@H](C)C(=O)N[C@@H](CCCNC(=N)N)C(=O)O)C(C)C", "note": "[Peptide P2_4R_V] (H-RGLGLALVRAVRGLGLALVAR-OH)", "BL21 MIC": 12.50},
      {"smiles": "CC(C)C[C@H](NC(=O)CNC(=O)[C@H](CCCNC(=N)N)NC(=O)[C@H](Cc1c[nH]c2ccccc12)NC(=O)[C@H](C)NC(=O)[C@H](CCCNC(=N)N)NC(=O)[C@@H](NC(=O)[C@H](CC(C)C)NC(=O)[C@H](C)NC(=O)[C@H](CC(C)C)NC(=O)CNC(=O)[C@H](CC(C)C)NC(=O)CNC(=O)[C@@H](N)CCCNC(=N)N)C(C)C)C(=O)NCC(=O)N[C@@H](CC(C)C)C(=O)N[C@@H](C)C(=O)N[C@@H](CC(C)C)C(=O)N[C@H](C(=O)N[C@@H](C)C(=O)N[C@@H](CCCNC(=N)N)C(=O)O)C(C)C", "note": "[Peptide P2_4R_W] (H-RGLGLALVRAWRGLGLALVAR-OH)", "BL21 MIC": 12.50},
      {"smiles": "CC(C)C[C@H](NC(=O)CNC(=O)[C@H](CCCNC(=N)N)NC(=O)[C@@H]1CCCN1C(=O)[C@H](CCCNC(=N)N)NC(=O)[C@H](CCCNC(=N)N)NC(=O)[C@@H](NC(=O)[C@H](CC(C)C)NC(=O)[C@H](C)NC(=O)[C@H](CC(C)C)NC(=O)CNC(=O)[C@H](CC(C)C)NC(=O)CNC(=O)[C@@H](N)CCCNC(=N)N)C(C)C)C(=O)NCC(=O)N[C@@H](CC(C)C)C(=O)N[C@@H](Cc1ccccc1)C(=O)N[C@@H](CC(C)C)C(=O)N[C@H](C(=O)N[C@@H](CCCNC(=N)N)C(=O)N[C@@H](CCCNC(=N)N)C(=O)O)C(C)C", "note": "[Peptide P2_A5F] (H-RGLGLALVRRPRGLGLFLVRR-OH)", "BL21 MIC": 3.13},
      {"smiles": "CC[C@H](C)[C@H](NC(=O)[C@H](CC(C)C)NC(=O)CNC(=O)[C@H](CC(C)C)NC(=O)CNC(=O)[C@H](CCCNC(=N)N)NC(=O)[C@@H]1CCCN1C(=O)[C@H](CCCNC(=N)N)NC(=O)[C@H](CCCNC(=N)N)NC(=O)[C@@H](NC(=O)[C@H](CC(C)C)NC(=O)[C@H](C)NC(=O)[C@H](CC(C)C)NC(=O)CNC(=O)[C@H](CC(C)C)NC(=O)CNC(=O)[C@@H](N)CCCNC(=N)N)C(C)C)C(=O)N[C@@H](CC(C)C)C(=O)N[C@H](C(=O)N[C@@H](CCCNC(=N)N)C(=O)N[C@@H](CCCNC(=N)N)C(=O)O)C(C)C", "note": "[Peptide P2_A5I] (H-RGLGLALVRRPRGLGLILVRR-OH)", "BL21 MIC": 12.50},
      {"smiles": "CC(C)C[C@H](NC(=O)CNC(=O)[C@H](CCCNC(=N)N)NC(=O)[C@@H]1CCCN1C(=O)[C@H](CCCNC(=N)N)NC(=O)[C@H](CCCNC(=N)N)NC(=O)[C@@H](NC(=O)[C@H](CC(C)C)NC(=O)[C@H](C)NC(=O)[C@H](CC(C)C)NC(=O)CNC(=O)[C@H](CC(C)C)NC(=O)CNC(=O)[C@@H](N)CCCNC(=N)N)C(C)C)C(=O)NCC(=O)N[C@@H](CC(C)C)C(=O)N[C@@H](CC(C)C)C(=O)N[C@@H](CC(C)C)C(=O)N[C@H](C(=O)N[C@@H](CCCNC(=N)N)C(=O)N[C@@H](CCCNC(=N)N)C(=O)O)C(C)C", "note": "[Peptide P2_A5L] (H-RGLGLALVRRPRGLGLLLVRR-OH)", "BL21 MIC": 6.25},
      {"smiles": "CSCC[C@H](NC(=O)[C@H](CC(C)C)NC(=O)CNC(=O)[C@H](CC(C)C)NC(=O)CNC(=O)[C@H](CCCNC(=N)N)NC(=O)[C@@H]1CCCN1C(=O)[C@H](CCCNC(=N)N)NC(=O)[C@H](CCCNC(=N)N)NC(=O)[C@@H](NC(=O)[C@H](CC(C)C)NC(=O)[C@H](C)NC(=O)[C@H](CC(C)C)NC(=O)CNC(=O)[C@H](CC(C)C)NC(=O)CNC(=O)[C@@H](N)CCCNC(=N)N)C(C)C)C(=O)N[C@@H](CC(C)C)C(=O)N[C@H](C(=O)N[C@@H](CCCNC(=N)N)C(=O)N[C@@H](CCCNC(=N)N)C(=O)O)C(C)C", "note": "[Peptide P2_A5M] (H-RGLGLALVRRPRGLGLMLVRR-OH)", "BL21 MIC": 6.25},
      {"smiles": "CC(C)C[C@H](NC(=O)CNC(=O)[C@H](CCCNC(=N)N)NC(=O)[C@@H]1CCCN1C(=O)[C@H](CCCNC(=N)N)NC(=O)[C@H](CCCNC(=N)N)NC(=O)[C@@H](NC(=O)[C@H](CC(C)C)NC(=O)[C@H](C)NC(=O)[C@H](CC(C)C)NC(=O)CNC(=O)[C@H](CC(C)C)NC(=O)CNC(=O)[C@@H](N)CCCNC(=N)N)C(C)C)C(=O)NCC(=O)N[C@@H](CC(C)C)C(=O)N[C@@H](Cc1c[nH]c2ccccc12)C(=O)N[C@@H](CC(C)C)C(=O)N[C@H](C(=O)N[C@@H](CCCNC(=N)N)C(=O)N[C@@H](CCCNC(=N)N)C(=O)O)C(C)C", "note": "[Peptide P2_A5W] (H-RGLGLALVRRPRGLGLWLVRR-OH)", "BL21 MIC": 6.25},
      {"smiles": "CC(C)C[C@H](NC(=O)CNC(=O)[C@H](CCCNC(=N)N)NC(=O)[C@@H]1CCCN1C(=O)[C@H](CCCNC(=N)N)NC(=O)[C@H](CCCNC(=N)N)NC(=O)[C@@H](NC(=O)[C@H](CC(C)C)NC(=O)[C@H](C)NC(=O)[C@H](CC(C)C)NC(=O)CNC(=O)[C@H](CC(C)C)NC(=O)CNC(=O)[C@@H](N)CCCNC(=N)N)C(C)C)C(=O)NCC(=O)N[C@@H](CC(C)C)C(=O)N[C@@H](Cc1ccc(O)cc1)C(=O)N[C@@H](CC(C)C)C(=O)N[C@H](C(=O)N[C@@H](CCCNC(=N)N)C(=O)N[C@@H](CCCNC(=N)N)C(=O)O)C(C)C", "note": "[Peptide P2_A5Y] (H-RGLGLALVRRPRGLGLYLVRR-OH)", "BL21 MIC": 6.25},
      {"smiles": "CC(C)C[C@H](NC(=O)CNC(=O)[C@H](CCCNC(=N)N)NC(=O)[C@@H]1CCCN1C(=O)[C@H](CCCNC(=N)N)NC(=O)[C@H](CCCNC(=N)N)NC(=O)[C@@H](NC(=O)[C@H](CC(C)C)NC(=O)[C@H](C)NC(=O)[C@H](CC(C)C)NC(=O)CNC(=O)[C@H](CC(C)C)NC(=O)[C@H](C)NC(=O)[C@@H](N)CCCNC(=N)N)C(C)C)C(=O)NCC(=O)N[C@@H](CC(C)C)C(=O)N[C@@H](C)C(=O)N[C@@H](CC(C)C)C(=O)N[C@H](C(=O)N[C@@H](CCCNC(=N)N)C(=O)N[C@@H](CCCNC(=N)N)C(=O)O)C(C)C", "note": "[Peptide P2_G2A] (H-RALGLALVRRPRGLGLALVRR-OH)", "BL21 MIC": 6.25},
      {"smiles": "CC(C)C[C@H](NC(=O)CNC(=O)[C@H](CCCNC(=N)N)NC(=O)[C@@H]1CCCN1C(=O)[C@H](CCCNC(=N)N)NC(=O)[C@H](CCCNC(=N)N)NC(=O)[C@@H](NC(=O)[C@H](CC(C)C)NC(=O)[C@H](C)NC(=O)[C@H](CC(C)C)NC(=O)[C@H](C)NC(=O)[C@H](CC(C)C)NC(=O)CNC(=O)[C@@H](N)CCCNC(=N)N)C(C)C)C(=O)NCC(=O)N[C@@H](CC(C)C)C(=O)N[C@@H](C)C(=O)N[C@@H](CC(C)C)C(=O)N[C@H](C(=O)N[C@@H](CCCNC(=N)N)C(=O)N[C@@H](CCCNC(=N)N)C(=O)O)C(C)C", "note": "[Peptide P2_G4A] (H-RGLALALVRRPRGLGLALVRR-OH)", "BL21 MIC": 6.25},
      {"smiles": "CC(C)C[C@H](NC(=O)CNC(=O)[C@@H](N)CCCNC(=N)N)C(=O)NCC(=O)N[C@@H](CC(C)C)C(=O)N[C@@H](C)C(=O)N[C@@H](CC(C)C)C(=O)N[C@H](C(=O)N[C@@H](CCCNC(=N)N)C(=O)N[C@@H](CCCNC(=N)N)C(=O)N1CCC[C@H]1C(=O)N[C@@H](CCCNC(=N)N)C(=O)N[C@@H](C)C(=O)N[C@@H](CC(C)C)C(=O)NCC(=O)N[C@@H](CC(C)C)C(=O)N[C@@H](C)C(=O)N[C@@H](CC(C)C)C(=O)N[C@H](C(=O)N[C@@H](CCCNC(=N)N)C(=O)N[C@@H](CCCNC(=N)N)C(=O)O)C(C)C)C(C)C", "note": "[Peptide P2_G13A] (H-RGLGLALVRRPRALGLALVRR-OH)", "BL21 MIC": 12.50}
    ]}
  ]
}
